Source: US11974985B2, “Composition of aminopyran derivative” (HAISCO PHARMACEUTICAL GROUP CO., LTD., priority 2018, dated 2024)

Assay: Compatibility test of compound of formula (I) with lactose, change of impurities
Format: physicochemical
Details: room temperature
Procedure: A compatibility test was carried out with lactose (a reducing sugar) and the compound of formula (I) at room temperature in which, after both were mixed in a certain ratio, the changes of impurity in the compound of formula (I) were tested.

CS(=O)(=O)n1cc2c(n1)CN([C@@H]1C[C@H](N)[C@@H](c3cc(F)ccc3F)O[C@@H]1C(F)(F)F)C2 [Compound of formula (I)]
Main peak area (%): 99.247%
Number of impurities: 5
Total impurities (%): 0.753%
